Test results as given in patent US20140315834A1 (Medicon Pharmaceuticals, Inc., priority 2012, published 2014).
Where two headings read alike, the source gives them in different places.

Experiments:
in vivo = details: mouse
U87 = U87 glioma sc xenograft; details: 20 mg/kg/d alone × 12 d, ip
U87 glioblastoma cells = assay: Apoptosis by Annexin V-FITC / propidium iodide staining; type: cell-based; details: 24 hours; PGIA 4 200 μM, PV 116 40 μM, alone or combined
Procedure: The potential synergy between PV and PGIA in inhibiting the growth of U87 glioblastoma cells was assessed by isobolographic analysis. After treatment with PV 116 or PGIA 4 alone or in combination for 24 hours, the following as determined: a) cell growth using the MTT assay (Promega, Madison, Wis.) and b) apoptosis by staining with Annexin V-FITC (Invitrogen) and propidium iodide 0.5 μg/ml and analyzing the fluorescence intensity by FACS caliber.

[1] = test system: U87 glioblastoma cell line; assay: 24-hour growth inhibition of glioblastoma cells; type: cell-based; details: 24 h, read-out: 24-h 1c50
[2] = test system: A549 human lung cancer cells; assay: Aerosol PS in orthotopic GFP-A549 lung cancer model; type: in vivo, mice; details: aerosol 50 mg/mL PS for 8 minutes, treatment group
Procedure: PS dissolved in ethanol was placed in the baffle and aerosolized with the ultrasonic atomizer. […] The air flow in the system used to deliver by inhalation the test drug to mice was controlled by an inlet air regulator and a vacuum pump which draws air from the system.
Mice received 50 mg/mL PS for 8 minutes. After one week of treatment, 1 million A549 human lung cancer cells stably expressing green fluorescence protein (GFP-A549) were injected into the left lung through a 5 mm incision) was made to the left side of the chest. GFP allows the detection and quantification of these cells. […] Inhalation treatment, suspended for 2 days post-surgery, continued for 6 weeks.

[3] = Hydrolysis of PS in PLLA(10K)-PEG(2K) nanocarrier, control pharmacokinetic experiments; type: in vivo
Procedure: Protection of phospho-NSAIDs from hydrolysis by encapsulation in nanocarriers enhances their anti-cancer efficacy. For example, PS was formulated in a nanocarrier suitable for iv administration [PLLA(10K)-PEG(2K)]. […] Nude mice bearing subcutaneous A549 human lung cancer xenografts were then given intravenously PS 60 mg/kg/d ×2d/week and the equimolar dose of sulindac (40 mg/kg.) Sulindac was ineffective in inhibiting the growth of the xenografts whereas PS was (32% vs. 75%; p<0.012). […] In other words, the anticancer efficacy of PS is not the result of its being metabolized to sulindac (Xie G, et al., Brit J. Pharmacol. 2012; 165:2152-66; Wong et al., J Pharmacol Exp Ther. 2012; 340:422-32).

[4] = test system: AGS human gastric xenografts; details: nude mice; alone or with esterase inhibitor; cited from earlier work
[5] = Drug levels after inhalation vs oral administration of PS; type: in vivo, mice
[6] = test system: lung and pancreatic carcinoma (Lewis lung carcinoma); assay: Efficacy in Ces1c knockout vs wild type mice; type: in vivo
[7] = Pharmacokinetics of phospho-sulindac in wild type and Ces1c knockout mice; type: in vivo; details: intraperitoneal and intravenous administration
Description: This is reflected in the enhanced distribution of intact phospho-sulindac in various tissues.

[8] = Ferric chloride-induced carotid artery thrombus; type: in vivo, mice; details: oral, 40% of MTD, injury one hour later; FIG. 32B
Procedure: In this model the carotid artery is briefly exposed to FeCl3 leading to thrombus formation at the site of the injury and occlusion of blood flow. […] Flow rate was then measured for 30 minutes (FIG. 32).

[9] = test system: A549 human lung cancer xenografts; assay: A549 sc xenografts, i.v. PS in nanocarrier vs sulindac; type: in vivo, mice; details: PS in nanocarrier, intravenously 60 mg/kg/d ×2d/week
[10] = type: in vivo, Lewis rats
platelets = assay: Ex vivo platelet aggregometry, collagen agonist; type: in vivo, mice; details: 40% MTD; collagen 1 μg/mL
Procedure: Platelet aggregation was studied using an Aggregometer (Chrono-Log, Havertown, Pa.). […] Maximum inhibition of aggregation occurred at 1 hour post treatment (FIG. 34).

MCF7 = MCF7 breast sc xenograft
HCT116 = HCT116 colon xenograft; details: Colon HCT116 sc; 100 mg/kg/d × 12 d, ip
[11] = Ulcerative colitis (IBD), DSS; details: 300 mg/kg/d × 10 d, po
A431 = type: in vivo, mice; details: Skin A431 id; Topical, 2 week
AGS = type: in vivo, mice; details: Gastric AGS sc, ip
A549 = type: in vivo, mice; details: Lung A549 ot, ip
MDA = MDA breast sc xenograft; details: 120 mg/kg/d × 22 d, ip
BT-20 = BT-20 breast sc xenograft; details: Breast BT-20 sc; 120 mg/kg/d × 28 d, ip
HT-29 = HT-29 colon sc xenograft; details: Colon HT-29 sc; 120 mg/kg/d × 12 d, ip

`CCOP(=O)(OCC)OCC(CNC(=O)C(C)c1ccc(CC(C)C)cc1)OP(=O)(OCC)OCC` (stereo not shown) [Compound 4, Phospho-Ibuprofen Gylcerol Amide] showed an MTD at 12 days (in vivo; nude, ip) of 20 mg/kg/day, an MTD at 1 week (in vivo; wt (wild type), po) of over 600 mg/kg/day and a Reduction (U87) of 52%. The “fold-increase of annexinV (+) cells” value (U87 glioblastoma cells) was 1.8 fold and the IC50 [1] was 87 µM.

In the case of `CCOP(=O)(OCC)OCCCCOC(=O)CC1=C(C)/C(=C/c2ccc([S+](C)[O-])cc2)c2ccc(F)cc21` (stereo not shown) [Compound 96, Phospho-Sulindac], the “death rate by the end of the study” value [2] is listed as “less than 10%”, the “PS in nanocarrier hydrolyzed to sulindac” value [3] is listed as under 6% and the “inhibition of growth of AGS xenografts” value [4] is listed as 28%. For the same molecule, the “PS levels in plasma” value ([5]; after inhalation or oral gavage) was “Undetectable”, the “level of intact PS in the lungs” value ([5]; inhalational 6.5 mg/kg body weight) was over 20 nmol/g and the “total drug levels (PS plus metabolites) in lungs, inhalation compared to oral” value ([5]; inhalational 6.5 mg/kg vs oral 150 mg/kg) was “significantly higher”. The “level of intact PS in the lungs” value ([5]; oral 150 mg/kg body weight) was under 2 nmol/g, the “efficacy against Lewis lung carcinoma (LLC) in Ces −/− mice” value ([6]; 150 mg/kg, i.p., subcutaneous LLC tumors, FIG. 35) was “more efficacious” and the “more effective in inhibiting growth of lung and pancreatic carcinoma in Ces1c knockout vs wild type mice” value ([6]; mouse, in vivo) was “approximately 2 fold”. For the same molecule, the “less inactivation in Ces1c knockout mice vs wild type” value [7] was “approximately 2 fold”, the “carotid artery blood flow following injury with FeCl3” value [8] was “flow rate is maintained” and the “inhibition of growth of xenografts” value [9] was 75%. For the same molecule, the analgesic effect ([10]; carboxylic esters, systemic, also topical in a hydrogel) was “effective”, the Bleeding time (150 mg/kg orally, 1 hour after administration) was 88 ± 7 s and the “prolongation of the bleeding time” value (treated mice) was “no prolongation of the bleeding time”. For the same molecule, the “time of maximum inhibition of aggregation post treatment” value (platelets) was 1 h.

With “phospho-aspirin glycerol amide [Compound 194]” the Reduction (MCF7; 120 mg/kg/d × 29 d, po, prevention) was 55%, the Reduction (MCF7; 500 mg/kg/d × 12 d, ip, treatment) was 80-100% and the Reduction (HCT116) was 18%. For the same molecule, the “Latency, sec Mean ± SEM” value ([10]; rat, in vivo, ip, 150 mg/kg) was 19.92 ± 0.78 s and the Reduction [11] was 30-48%.

Molecule `CCOP(=O)(OCC)OCCCCNC(=O)C(C)c1ccc(CC(C)C)cc1` (stereo not shown) [Compound 1, Phosphoric acid diethyl ester 4-[2-(4-isobutyl-phenyl)-propionylamino]-butyl ester] has a Reduction (A431) of 46%, a Reduction (AGS; 160 mg/kg/d × 3 week) of 34% and a Reduction (A549; 160 mg/kg/d × 6 week) of 75%. For the same molecule, the MTD at 6 week (in vivo; nude, ip) was 160 mg/kg/day and the “Latency, sec Mean ± SEM” value ([10]; Dose 120 mg/kg ip, 30 minutes prior to testing) was 23.42 ± 1.16 s.

Work on `CCCC(CCC)C(=O)Oc1ccc(COP(=O)(OCC)OCC)cc1` [Compound 116, Phosphovalproic Acid] yielded a Reduction (AGS; 100 mg/kg/d × 3 week) of 81%, a Reduction (A549; 100 mg/kg/d × 6 week) of 80% and a Reduction (MDA) of 63%. The Reduction (BT-20) was 37%, the Reduction (HT-29) was 40% and the “fold-increase of annexinV (+) cells” value (U87 glioblastoma cells) was 3.0 fold.
